Test results: patent US12195427B2, “MASP-2 inhibitors and methods of use” (priority 2018, dated 2025)

Target: MASP-2 CCP2-SP (Homo sapiens (Human), UniProt O00187)
Test: MASP-2 co-crystallization, X-ray crystallography and structure analysis (H-bonds, van der Waals contacts);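 as to Ligand-pharmacophore element distance, pharmacophore element C2: distance from averaged pharmacophore element to bound ligand; missing value means element absent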;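 as to Ligand-pharmacophore element distance, pharmacophore element C3: distance from averaged pharmacophore element to bound ligand; missing value means element absent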;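 as to Ligand-pharmacophore element distance, pharmacophore element C4: distance from averaged pharmacophore element to bound ligand; missing value means element absent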;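 as to Ligand-pharmacophore element distance, pharmacophore element C5: distance from averaged pharmacophore element to bound ligand; missing value means element absent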
Set-up: van der Waals contact distance, MASP-2 HIS 483 atom CD2 / van der Waals contact distance, MASP-2 HIS 483 atom NE2 / van der Waals contact distance, SER 654 C to compound atom / van der Waals contact distance, SER 654 O to compound atom / van der Waals contact distance, TRP 655 C to compound atom / van der Waals contact distance, MASP-2 GLY 528 atom CA / van der Waals contact distance TRP 655 atom CZ3 / van der Waals contact distance TRP 655 atom N / van der Waals contact distance TRP 655 atom CE3 / van der Waals contact distance GLY 656 atom C / van der Waals contact distance GLY 656 atom CA / van der Waals contact distance GLY 656 atom O / van der Waals contact distance, MASP-2 TYR 607 atom CD1 / van der Waals contact distance, MASP-2 PRO 606 atom O / d(C3,CA1) / d(CA1,N1)2 / d(H4,O1) / d(H4,O2) / d(O1,O2) / d(CA1,O2) / d(CA6,O1) / d(CA6,O2) / d(CA1,C5) / d(O2,H3) / d(N2,C2) / d(CA5,N2) / d(N2,C4) / d(N2,C6) / d(N2,CA3) / d(N2,O3) / d(O4,H2): unit not given beside the values
Details: for Ligand-pharmacophore element distance, pharmacophore element C2 / Ligand-pharmacophore element distance, pharmacophore element C3 / Ligand-pharmacophore element distance, pharmacophore element C4 / Ligand-pharmacophore element distance, pharmacophore element C5 / Ligand-pharmacophore element distance, pharmacophore element C6 / Ligand-pharmacophore element distance, pharmacophore element C7 / Ligand-pharmacophore element distance, pharmacophore element CA1 / Ligand-pharmacophore element distance, pharmacophore element CA2 / Ligand-pharmacophore element distance, pharmacophore element CA3 / Ligand-pharmacophore element distance, pharmacophore element CA4 / Ligand-pharmacophore element distance, pharmacophore element CA5 / Ligand-pharmacophore element distance, pharmacophore element CA6: Table A4-1
Summary of the method: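 E. coli-expressed CCP2-SP (±6His); apo crystals soaked 1–2× in inhibitor-containing crystallization solution; optional 20% glycerol cryoprotection, LN2 flash-cool; synchrotron data at 1.0 wavelength; MR using 1Q3X portions, partial refinement; single pose analysed when several seen.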

[1] = Table A5-1 pharmacophore: distance between elements, S2/S1 region
[2] = Table A5-2 pharmacophore distance, S3/S4 region
[3] = Table A7-1, between pharmacophore elements of the bound compound
[4] = Table A7-2, between pharmacophore elements of the bound compound

Chain of MASP-2 CCP2-SP (O00187 445-686): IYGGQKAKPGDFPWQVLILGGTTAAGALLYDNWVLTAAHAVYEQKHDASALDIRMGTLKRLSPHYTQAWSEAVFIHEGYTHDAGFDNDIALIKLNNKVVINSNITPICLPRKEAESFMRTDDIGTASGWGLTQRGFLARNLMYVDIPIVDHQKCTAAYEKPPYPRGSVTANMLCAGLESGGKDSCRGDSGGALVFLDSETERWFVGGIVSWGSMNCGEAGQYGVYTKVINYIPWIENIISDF
Chain of MASP-2 CCP2-SP (O00187 364-432 partner): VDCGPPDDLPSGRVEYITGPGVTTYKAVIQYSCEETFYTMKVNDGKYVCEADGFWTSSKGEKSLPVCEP

For `C[C@H](NC(=O)[C@H]1C[C@@H](c2ccccc2)CCN1)C(=O)NCc1cc(Cl)ccc1O.Cl` [1078_15], the “Ligand-pharmacophore element distance, pharmacophore element C2” value was 0.81, the “Ligand-pharmacophore element distance, pharmacophore element C3” value was 0 and the “Ligand-pharmacophore element distance, pharmacophore element C4” value was 0. The “Ligand-pharmacophore element distance, pharmacophore element C5” value was 0.43, the “Ligand-pharmacophore element distance, pharmacophore element C6” value was 0 and the “Ligand-pharmacophore element distance, pharmacophore element C7” value was 0. The “Ligand-pharmacophore element distance, pharmacophore element CA1” value was 1.56, the “Ligand-pharmacophore element distance, pharmacophore element CA2” value was 0.65 and the “Ligand-pharmacophore element distance, pharmacophore element CA3” value was 0. For the same compound, the “Ligand-pharmacophore element distance, pharmacophore element CA4” value was 0, the “Ligand-pharmacophore element distance, pharmacophore element CA5” value was 0 and the “Ligand-pharmacophore element distance, pharmacophore element CA6” value was 0. For the same compound, the “d(CA1,C5)” value [1] was 3.13, the “d(CA1,O1)” value [1] was 4.59 and the “d(CA1,O2)” value [1] was 4.59. The “d(CA1,O4)” value [1] was 2.74, the “d(H4,O1)” value [1] was 2.66 and the “d(H4,O2)” value [1] was 2.49. The “d(O1,O2)” value [1] was 2.93, the “d(O4,H2)” value [1] was 0.97 and the “d(N2,C2)” value [2] was 1.45. For the same compound, the “d(N2,CA2)” value [2] was 5.66, the “d(O2,H3)” value [2] was 2.97 and the “d(O2,N2)” value [2] was 2.84. The “a(C5, CA1, O1)” value (Table A6-1 pharmacophore angle) was 160.41, the “a(CA1, O1, O2)” value (Table A6-1 pharmacophore angle) was 108.62 and the “a(CA1, O4, H2)” value (Table A6-1 pharmacophore angle) was 127.31. For the same compound, the “a(O1, CA1, O4)” value (Table A6-1 pharmacophore angle) was 65.89, the “a(O1, O2, H4)” value (Table A6-1 pharmacophore angle) was 110.90 and the “a(O1, O2, H3)” value (Table A6-2 pharmacophore angle) was 143.22. For the same compound, the “a(O1, O2, N2)” value (Table A6-2 pharmacophore angle) was 147.42, the “a(O2, N2, C2)” value (Table A6-2 pharmacophore angle) was 124.17 and the “a(O2, N2, CA2)” value (Table A6-2 pharmacophore angle) was 155.02. For the same compound, the “Pharmacophore torsion angle a(C5, CA1, O1, H4)” value [3] was 19.98, the “Pharmacophore torsion angle a(H4, O1, O2, H3)” value [3] was −124.63 and the “Pharmacophore torsion angle a(H4, O1, O2, N2)” value [3] was −117.88. For the same compound, the “Pharmacophore torsion angle a(O1, H4, O2, CA1)” value [3] was −64.96, the “Pharmacophore torsion angle a(O1, O2, N2, C2)” value [3] was 139.14 and the “Pharmacophore torsion angle a(O1, O2, N2, C2)2” value [3] was 139.34. The “Pharmacophore torsion angle a(O1, O2, N2, CA2)” value [4] was 141.63.

With `C[C@H](NC(=O)[C@@H](CCc1ccccc1)NCCCc1ccc(O)cc1)C(=O)NCc1ccc(C(=N)N)cc1.Cl.Cl` [1145_B] the “Ligand-pharmacophore element distance, pharmacophore element C2” value was 0, the “Ligand-pharmacophore element distance, pharmacophore element C3” value was 0 and the “Ligand-pharmacophore element distance, pharmacophore element C4” value was 0. The “Ligand-pharmacophore element distance, pharmacophore element C5” value was 0, the “Ligand-pharmacophore element distance, pharmacophore element C6” value was 0 and the “Ligand-pharmacophore element distance, pharmacophore element C7” value was 0. The “Ligand-pharmacophore element distance, pharmacophore element CA1” value was 0.47, the “Ligand-pharmacophore element distance, pharmacophore element CA2” value was 0.41 and the “Ligand-pharmacophore element distance, pharmacophore element CA3” value was 1.22. For the same compound, the “Ligand-pharmacophore element distance, pharmacophore element CA4” value was 0, the “Ligand-pharmacophore element distance, pharmacophore element CA5” value was 0 and the “Ligand-pharmacophore element distance, pharmacophore element CA6” value was 0. The “d(CA1,N1)” value [1] was 3.54, the “d(CA1,O1)” value [1] was 4.42 and the “d(CA1,O2)” value [1] was 4.42. The “d(H4,O1)” value [1] was 4.89, the “d(H4,O2)” value [1] was 4.48 and the “d(O1,O2)” value [1] was 3.28. For the same compound, the “d(N2,CA2)” value [2] was 5.91, the “d(N2,CA3)” value [2] was 5.59 and the “d(N2,H1)” value [2] was 8.68. For the same compound, the “d(N2,O3)” value [2] was 7.97, the “d(O2,H3)” value [2] was 5.36 and the “d(O2,N2)” value [2] was 2.77. For the same compound, the “a(CA1, O1, O2)” value (Table A6-1 pharmacophore angle) was 111.73, the “a(O1, O2, H4)” value (Table A6-1 pharmacophore angle) was 139.31 and the “A(N1, CA1, O1) a)” value (Table A6-1 pharmacophore angle, all compounds with protonatable center N1 except Methyl-amino-pyridine) was 162.28. For the same compound, the “a(O1, O2, H3)” value (Table A6-2 pharmacophore angle) was 150.25, the “a(O1, O2, N2)” value (Table A6-2 pharmacophore angle) was 136.24 and the “a(O2, N2, CA2)” value (Table A6-2 pharmacophore angle) was 153.28. The “a(O2, N2, CA3)” value (Table A6-2 pharmacophore angle) was 161.48, the “a(O2, N2, H1)” value (Table A6-2 pharmacophore angle) was 168.66 and the “a(O2, N2, O3)” value (Table A6-2 pharmacophore angle) was 168.41. For the same compound, the “Pharmacophore torsion angle a(H4, O1, O2, H3)” value [3] was 48.71, the “Pharmacophore torsion angle a(H4, O1, O2, N2)” value [3] was 124.15 and the “Pharmacophore torsion angle a(N1, CA1, O2, H4)” value [3] was −128.41. For the same compound, the “Pharmacophore torsion angle a(O1, H4, O2, CA1)” value [3] was −59.90, the “Pharmacophore torsion angle a(O1, O2, N2, CA2)” value [4] was 140.87 and the “Pharmacophore torsion angle a(O1, O2, N2, CA3)” value [4] was −15.65. For the same compound, the “Pharmacophore torsion angle a(O1, O2, N2, H1)” value [4] was −15.97 and the “Pharmacophore torsion angle a(O1, O2, N2, O3)” value [4] was −10.98.
